The record followed here is patent publication US20210379040A1, “COMBINATION TREATMENT OF LIVER DISORDERS” (Terns Pharmaceuticals, Inc., priority 2020, published 2021).

Each structure is given as a SMILES string. Where two headings read alike, the source gives them in different places.

In general, clearance refers to a measure of how efficiently the substance is removed, as volume per time. The bioavailability is the share of a dose that reaches the circulation, judged against a reference dose that is usually intravenous. The Cmax is the highest concentration seen after dosing. The Tmax is the time from dosing to the highest level. What is called IC50 is the concentration at which inhibition is half-maximal.

The nature of data set [1]: Pharmacokinetics assay, monkey. It is filed as in vivo, cynomolgus monkeys. To be noted: plasma, iv, Cynomolgus Monkey, intravenously 0.3 mg/kg. The source says:
(§1) Results are shown in FIG. 1A (IV administration) and FIG. 1B (oral administration), and in Table 2. […] Smaller Vdss in monkeys is correlated with higher plasma protein binding.

Another data set concerns mouse hepatocytes. Put plainly: In vitro metabolic stability in cryopreserved hepatocytes (mouse). The format is in vitro ADME. Here is the method: (§2) In vitro half-life values were determined and scaled to predict hepatic clearance (CLpred) and hepatic extraction using the well-stirred liver model with no correction for plasma protein as described in Obach et al., The Prediction of Human Pharmacokinetic Parameters from Preclinical and In Vitro Metabolism Data, J. of Pharmacology and Experimental Therapeutics, vol. 283, no. 1, pp. 46-58 (1997).

The next data set relates to rat hepatocytes. Put plainly: In vitro metabolic stability in cryopreserved hepatocytes (rat). The settings on record: Sprague-Dawley Rat. It is filed as in vitro ADME. Here is the method: as §2
Data set [2] in a line: Pharmacokinetics assay, rat. The format is in vivo, Sprague-Dawley (SD) rats. To be noted: plasma, Sprague-Dawley Rat.
Excerpt: as §1

Data set [3] relates to FXR-regulated gene expression in liver and ileum. Put plainly: Mechanism of action: tissue RNA by RT-qPCR and RNAseq after single oral dose. To be noted: C57BL/6 mice, single oral 10 mg/kg, 6 hours. On the technique in general: Quantitative PCR measures a nucleic acid by following its amplification.
Method: The RNA was analyzed by RT-qPCR and RNAseq.
For RNAseq analysis, mRNA was extracted from total liver and sequenced using standard Illumina library preparation and sequencing protocols. Differentially expressed genes (DEG) were determined using RSEM and edgeR software packages and analyzed using Advaita Bio's iPathwayGuide software.
A short description of data set [4]: PK/PD profile, single oral dose. It is filed as in vivo. To be noted: cynomolgus monkey, plasma, cynomolgus monkeys; for AUC(0-t): read-out: AUC0-24. The method, then: Pharmacokinetics data is presented in Table 3, and were determined by non-compartmental analysis.
For data set [5], the target named is T1, plasma SSAO (Homo sapiens, UniProt Q16853).
T1 construct: from tissue; host or cells: plasma of healthy participants
T1 sequence (Q16853 27-763 limits assumed): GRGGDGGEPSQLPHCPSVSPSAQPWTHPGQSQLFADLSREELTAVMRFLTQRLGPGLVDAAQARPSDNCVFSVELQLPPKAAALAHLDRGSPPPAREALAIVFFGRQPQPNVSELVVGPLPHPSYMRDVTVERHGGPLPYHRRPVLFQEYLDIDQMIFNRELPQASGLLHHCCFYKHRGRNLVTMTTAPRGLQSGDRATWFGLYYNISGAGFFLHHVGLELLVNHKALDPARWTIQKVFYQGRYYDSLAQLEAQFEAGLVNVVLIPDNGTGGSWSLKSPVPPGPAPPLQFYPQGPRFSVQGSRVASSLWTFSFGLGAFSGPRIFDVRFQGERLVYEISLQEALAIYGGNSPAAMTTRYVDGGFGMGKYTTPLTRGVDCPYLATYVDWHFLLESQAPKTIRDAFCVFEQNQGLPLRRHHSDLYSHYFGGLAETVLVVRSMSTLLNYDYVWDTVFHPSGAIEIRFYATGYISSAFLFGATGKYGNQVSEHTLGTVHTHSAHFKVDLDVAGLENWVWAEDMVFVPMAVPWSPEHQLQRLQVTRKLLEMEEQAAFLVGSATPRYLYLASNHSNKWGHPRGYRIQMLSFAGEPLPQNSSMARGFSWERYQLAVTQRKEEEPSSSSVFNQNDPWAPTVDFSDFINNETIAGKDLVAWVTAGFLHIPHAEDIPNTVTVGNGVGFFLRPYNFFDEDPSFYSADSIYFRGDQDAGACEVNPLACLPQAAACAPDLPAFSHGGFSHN
Put plainly: Multiple once daily dose study: plasma amine oxidase activity and methylamine. The format is in vivo. Here is the method:
3 groups of 8 healthy participants were randomized to receive multiple once daily (QD) doses of Compound 2 or matching placebo in a 3:1 ratio for 7 days (1 mg and 4 mg) or 14 days (10 mg). Plasma levels of Compound 2 and PD biomarkers (plasma amine oxidase activity and methylamine levels) were determined at pre-dose and various timepoints post-dose. Safety was assessed for up to 14 days after last dose.

Data set [6] deals with T1, plasma SSAO. Put plainly: Single-ascending dose clinical trial: plasma amine oxidase activity and methylamine. The format is in vivo. Here is the method:
Safety was assessed for 7 (±3) days after dosing.
Plasma PK parameters were determined by non-compartmental analysis.
SSAO-specific amine oxidase levels in plasma were determined using a kinetic-based assay essentially as described previously (Schilter et al). Endogenous monoamine oxidases A and B were inhibited by adding pargyline to plasma samples prior to measuring H2O2 generation levels in placebo and active recipients. Maximum inhibition was defined by pre-dose (baseline) samples additionally treated with a high dose of Compound 2 and percent changes in SSAO-specific activity were calculated relative to baseline samples.

The target of a further data set is T2, SSAO (Homo sapiens, UniProt Q16853).
T2 sequence (Q16853 1-763): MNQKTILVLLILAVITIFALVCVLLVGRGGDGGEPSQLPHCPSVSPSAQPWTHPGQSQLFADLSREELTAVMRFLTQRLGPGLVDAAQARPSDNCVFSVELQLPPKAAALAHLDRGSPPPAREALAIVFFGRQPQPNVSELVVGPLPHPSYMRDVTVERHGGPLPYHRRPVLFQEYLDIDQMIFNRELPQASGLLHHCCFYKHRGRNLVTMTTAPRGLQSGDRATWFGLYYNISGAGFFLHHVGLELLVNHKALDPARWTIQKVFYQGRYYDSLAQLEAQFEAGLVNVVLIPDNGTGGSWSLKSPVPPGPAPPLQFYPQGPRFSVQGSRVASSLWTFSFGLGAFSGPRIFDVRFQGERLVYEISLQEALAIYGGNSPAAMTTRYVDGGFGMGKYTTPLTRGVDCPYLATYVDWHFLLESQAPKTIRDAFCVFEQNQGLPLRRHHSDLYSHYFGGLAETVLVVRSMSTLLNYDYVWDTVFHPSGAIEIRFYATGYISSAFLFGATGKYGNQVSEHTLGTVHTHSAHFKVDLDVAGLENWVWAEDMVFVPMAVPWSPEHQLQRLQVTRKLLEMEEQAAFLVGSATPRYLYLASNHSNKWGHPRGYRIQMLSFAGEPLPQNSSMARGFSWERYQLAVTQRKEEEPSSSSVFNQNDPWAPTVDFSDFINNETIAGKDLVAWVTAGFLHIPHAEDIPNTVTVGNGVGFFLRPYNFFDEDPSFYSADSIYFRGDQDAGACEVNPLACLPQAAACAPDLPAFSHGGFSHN
Put plainly: Biochemical activity, SSAO.

`Cn1cc(C(=O)O)c2ccc(N3CCC(OCc4c(-c5c(Cl)cccc5Cl)noc4C4CC4)CC3)cc21` [Compound 1]: the clearance in data set [1] was 5 mL/min/kg; in data set [2] (iv, intravenously 1 mg/kg) it was 42.5 mL/min/kg. Moreover, the half-life in data set [1] (read-out: IV Terminal t1/2 (converted)) is 1.32 h; in data set [2] (iv, intravenously 1 mg/kg, read-out: IV Terminal t1/2 (converted)), 2.45 h. Also, the Vd in [1] (read-out: Vdss) was determined as 0.6 L/kg; in [2] (iv, intravenously 1 mg/kg, read-out: Vdss), 1.31 L/kg. Moreover, the “Hepatic Extraction” value in the data set on mouse hepatocytes is 80.7 ± 1.02%; in the data set with rat hepatocytes it was 47.3 ± 0.78%. The “In vitro Metabolic CLpred” value in the data set on mouse hepatocytes (well-stirred liver model) turned out to be 72.7 ± 1 mL/min/kg; with rat hepatocytes (well-stirred liver model), 26.2 ± 0.5 mL/min/kg. In addition, in [2] (po, orally 10 mg/kg), the bioavailability came out at 21%. Besides, the “induction of FXR-specific genes, liver versus ileum (RT-qPCR)” value in [3] is reported as “preferentially induces FXR-specific genes in the liver”. Also, the Cmax in [4] (oral 0.3 mg/kg) was determined as 58.8 ± 30.2 ng/mL; in [4] (oral 1 mg/kg) it was 257 ± 124 ng/mL; in [4] (oral 5 mg/kg), 709 ± 458 ng/mL. Further, the Tmax in data set [4] (oral 0.3 mg/kg) was 2.17 ± 1.47 h; in [4] (oral 1 mg/kg) it was 1.83 ± 1.17 h; in data set [4] (oral 5 mg/kg) it was 2.25 ± 1.47 h. Further, the AUC(0-t) in data set [4] (oral 0.3 mg/kg) turned out to be 196 ± 64 ng·h/mL; in data set [4] (oral 1 mg/kg), 1000 ± 419 ng·h/mL; in data set [4] (oral 5 mg/kg) it was 2720 ± 1500 ng·h/mL.
On to `COC1CCN(c2ncc(OC/C(=C/F)CN)cn2)CC1` [Compound 2], for which, at plasma SSAO [5] (10 mg cohort (QD, 14 days)), the “duration of continued suppression of plasma SSAO activity after last dose” value was “up to 2 weeks”. For the same molecule, the “inhibition of plasma SSAO activity” value was “Near complete inhibition” at plasma SSAO [5] (Day 1, all dose cohorts) and “near complete inhibition” on plasma SSAO [6] (4 hours post-dose, all dose cohorts (1, 3, 6, 10 mg single dose)). For the same molecule, the Plasma methylamine levels entry at plasma SSAO [5] (QD 1, 4, 10 mg) was “increased in a greater than dose proportional manner”. For the same molecule, the “duration of continued suppression of plasma SSAO activity” value on plasma SSAO [6] (after a single dose) is “up to 1 week”. The plasma methylamine entry on plasma SSAO [6] (single dose 1, 3, 6, 10 mg) is on record as “Dose-dependent increases”. This molecule also displayed an IC50 against SSAO of 6.5 nM.
